Experimental data reported in article PMC7933930, “Development of a small molecule that corrects misfolding and increases secretion of Z α1‐antitrypsin” (EMBO Molecular Medicine, 2021).

Assays:
CHO‐TET‐ON‐Z‐A1AT cells = assay: Tunicamycin sensitivity, cell viability (Cell Counting Kit‐8), cells expressing Z α1‐antitrypsin; assay type: cell-based; conditions: 10 μM GSK716, cells expressing Z α1‐antitrypsin, tunicamycin 36 h
Procedure: Figure 2 GSK716 inhibits polymerisation of Z α1‐antitrypsin in cell models of disease • A GSK716 was added to CHO‐TET‐ON‐Z‐A1AT cells (Ordóñez et al, 2013) with simultaneous induction of Z α1‐antitrypsin expression using doxycycline, and polymer load was quantified with the 2C1 monoclonal antibody that is specific to pathological polymers of α1‐antitrypsin (Miranda et al, 2010). […] Data were normalised to vehicle and a control compound from the GSK716 series at saturating concentration. […] It induced an approximately threefold increase in secreted levels of Z α1‐antitrypsin compared with vehicle control. This was apparent even after polymers had been allowed to form. Scale bar: 100 µm. Data presented as mean ± SD, n = 8 (secretion) and n = 6 (polymer inhibition). • E CHO tetracycline‐inducible cells expressing Z α1‐antitrypsin were induced with 0.5 μg/ml doxycycline for 48 h and treated with 10 μM GSK716. […] For every time point, NP‐40‐soluble and NP‐40‐insoluble fractions were separated and immunoprecipitated with the 2C1 mAb and resolved by 4–12% w/v SDS–PAGE and α1‐antitrypsin detected by immunoblotting. […] Cell viability was measured by Cell Counting Kit‐8. […] Samples were resolved by 4–12% w/v acrylamide SDS–PAGE and detected by autoradiography. • H The graphs show the effect of GSK716 on intracellular and extracellular Z α1‐antitrypsin (mean ± SEM, n = 2). […]

[1] = Oral pharmacokinetics in rat; assay type: in vivo; conditions: Han Wistar, whole blood, ≤ 3 mg/kg, read-out: F (oral bioavailability)
Procedure: […] Blood samples were taken into EDTA, diluted and mixed with acetonitrile containing internal standard (alprazolam) and centrifuged to precipitate proteins. Aliquots of the resultant supernatant were analysed by LC‐MS/MS, and concentrations of GSK716 in blood were determined. Non‐compartmental pharmacokinetic analysis (NCA) was carried out using Phoenix WinNonLin 6.3 (Certara L.P.). Free drug was measured in Z α1‐antitrypsin transgenic mice by dialysing tissue samples in rapid equilibrium dialysis cassettes.

OPRM1 = OPRM1 (Homo sapiens, UniProt P35372); assay: Off‐target panel: OPRM1 (DRX); assay type: cell-based
OPRM1, sequence (P35372 whole entry, species assumed): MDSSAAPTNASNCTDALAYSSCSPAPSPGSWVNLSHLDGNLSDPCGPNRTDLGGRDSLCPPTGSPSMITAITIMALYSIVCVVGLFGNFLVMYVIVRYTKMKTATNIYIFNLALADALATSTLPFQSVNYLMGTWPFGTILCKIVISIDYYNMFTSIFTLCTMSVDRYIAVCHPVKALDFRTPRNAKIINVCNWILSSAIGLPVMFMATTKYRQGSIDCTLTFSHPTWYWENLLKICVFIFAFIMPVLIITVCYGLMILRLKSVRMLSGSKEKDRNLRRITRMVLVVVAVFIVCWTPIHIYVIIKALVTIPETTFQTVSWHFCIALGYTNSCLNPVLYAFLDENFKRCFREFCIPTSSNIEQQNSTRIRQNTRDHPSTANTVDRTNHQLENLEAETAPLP
Procedure: (§1) GSK716 selectivity and PK properties were profiled in order to investigate the suitability of GSK716 for progression into in vivo studies and the potential for taking it forward as a clinical candidate for testing in humans. Since GSK716 results in loss of inhibitory activity of α1‐antitrypsin, the effect of the compound was assessed on other closely related serpins. […] Furthermore, there were no off‐target effects in a panel of assays considered predictive of known safety liabilities that precluded further development of GSK716 (Table EV1).

MRGPRX2 = MRGPRX2 (Homo sapiens, UniProt Q96LB1); assay: Off‐target panel: MRGPRX2 Agonist (DRX); assay type: cell-based; conditions: read-out: Mean (PXC50)
MRGPRX2, sequence (Q96LB1 whole entry, species assumed): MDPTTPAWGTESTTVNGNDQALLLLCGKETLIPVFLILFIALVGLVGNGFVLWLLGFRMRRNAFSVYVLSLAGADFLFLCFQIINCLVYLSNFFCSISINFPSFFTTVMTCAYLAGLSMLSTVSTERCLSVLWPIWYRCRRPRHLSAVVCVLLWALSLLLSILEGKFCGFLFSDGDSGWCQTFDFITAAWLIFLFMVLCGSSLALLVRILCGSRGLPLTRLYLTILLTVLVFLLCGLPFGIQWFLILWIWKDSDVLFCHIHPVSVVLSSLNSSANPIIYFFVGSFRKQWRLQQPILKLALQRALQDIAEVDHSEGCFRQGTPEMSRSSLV
Procedure: as §1

[2] = test system: Z α1‐antitrypsin polymers in iPSC‐derived human hepatocytes (ZZ genotype); assay: Z α1‐antitrypsin polymerisation in ZZ iPSC‐derived human hepatocytes; assay type: cell-based; conditions: Hepatocyte, n = 16, read-out: mean pIC50, polymerisation (converted)
human hepatocytes = assay: Hepatocyte clearance, human; assay type: in vitro ADME
Procedure: Williams E media supplemented with 2 mM L‐glutamine and 25 mM HEPES and test compound (final compound concentration 0.5 µM; final DMSO concentration 0.25% v/v) were preincubated at 37°C prior to the addition of a suspension of cryopreserved pooled hepatocytes (final cell density 0.5 × 10^6 viable cells/ml) to initiate the reaction. The final incubation volume was 500 µl. The reactions were stopped by transferring 50 µl of incubate to 100 µl acetonitrile containing internal standard at the appropriate time points (0, 5, 10, 20, 40 and 60 min, 0, 10, 20, 40, 60 and 120 min or 0, 20, 40, 60, 120 and 240 min). The control (lysed cells or vehicle) was incubated for 60, 120 or 240 min only. The termination plates were centrifuged at 2,500 rpm at 4°C for 30 min to precipitate the protein. Following protein precipitation, the sample supernatants were analysed by LC‐MS/MS. From a plot of loge peak area ratio (compound peak area/internal standard peak area) against time, the gradient of the line was determined and half‐life (t½) and intrinsic clearance (CLint) were calculated.

CCC[C@@H](NC(=O)c1cccc2c1CC(=O)N2)[C@@H](O)c1cccc(F)c1C [GSK716]
sensitivity to tunicamycin (cell viability) (CHO‐TET‐ON‐Z‐A1AT cells): restored sensitivity of Z α1‐antitrypsin expressing cells to that of the wild‐type control cells
bioavailability [1]: 48%
EC50 (OPRM1): 10 µM
EC50 (MRGPRX2): > 100 µM
IC50 [2]: 0.398 µM
metabolic clearance in human hepatocytes (human hepatocytes): 0.31 ml/min/g tissue
